The target of assay [1] is T1, Endothelin receptor type B (Rattus norvegicus, UniProt P21451).
T1 sequence (P21451 whole entry): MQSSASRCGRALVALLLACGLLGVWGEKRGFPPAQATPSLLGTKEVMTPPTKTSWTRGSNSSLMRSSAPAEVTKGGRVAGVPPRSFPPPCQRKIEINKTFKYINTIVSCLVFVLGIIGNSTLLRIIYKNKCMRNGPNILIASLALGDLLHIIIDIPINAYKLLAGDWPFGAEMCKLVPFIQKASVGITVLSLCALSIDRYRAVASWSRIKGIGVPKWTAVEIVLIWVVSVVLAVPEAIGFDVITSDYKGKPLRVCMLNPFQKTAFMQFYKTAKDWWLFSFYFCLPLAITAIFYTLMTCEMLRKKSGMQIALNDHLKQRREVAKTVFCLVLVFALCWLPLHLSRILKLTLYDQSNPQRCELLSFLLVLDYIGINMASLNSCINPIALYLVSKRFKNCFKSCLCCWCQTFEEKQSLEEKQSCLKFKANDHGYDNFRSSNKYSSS
Put plainly: Affinity against ET B receptor.

The next assay concerns the target T2, Endothelin-1 receptor (Homo sapiens, UniProt P25101).
T2 sequence (P25101 whole entry): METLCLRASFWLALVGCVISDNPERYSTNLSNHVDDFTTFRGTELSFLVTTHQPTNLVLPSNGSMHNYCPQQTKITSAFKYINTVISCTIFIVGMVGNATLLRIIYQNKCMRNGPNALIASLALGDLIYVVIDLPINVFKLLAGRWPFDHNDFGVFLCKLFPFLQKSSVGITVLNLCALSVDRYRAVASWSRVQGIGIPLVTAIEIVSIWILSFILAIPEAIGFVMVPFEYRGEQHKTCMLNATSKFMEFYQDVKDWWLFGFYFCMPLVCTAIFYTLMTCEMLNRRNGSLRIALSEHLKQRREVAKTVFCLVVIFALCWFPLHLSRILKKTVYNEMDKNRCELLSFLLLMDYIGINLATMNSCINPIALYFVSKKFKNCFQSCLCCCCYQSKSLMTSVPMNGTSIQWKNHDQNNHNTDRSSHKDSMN
Put plainly: Affinity against ET A receptor.

SMILES strings stand for the structures. Where a SMILES comes first, the peptide text is derived from it. [ ]: non-standard residue; d: D form.

With `CCCN1c2ccccc2C(=O)N(CC(=O)O)c2cc(NC(=O)c3cc4ccccc4[nH]3)ccc21`, the Ki in assay [1] came out at 6 µM; at Endothelin-1 receptor, 33 µM.

On to `O=C(O)CN1C(=O)c2ccccc2Nc2ccc(OCc3ccccc3)cc21`, for which the Ki in assay [1] was > 100 µM; on Endothelin-1 receptor it was 109 µM.

`CCCN1c2ccccc2C(=O)N(CC(=O)O)c2cc(NC(=O)c3cccc4ccccc34)ccc21` gave a Ki on Endothelin-1 receptor of 83 µM.

In turn, `CC(C)C[C@@H]1NC(=O)[C@@H](C(C)C)NC(=O)[C@@H]2CCCN2C(=O)[C@@H](CC(=O)O)NC(=O)[C@@H](Cc2c[nH]c3ccccc23)NC1=O` [BQ-123] (cyclo(L[dW][dD]P[dV])) had a Ki at Endothelin-1 receptor of 0.018 µM.

For `CCCN1c2ccccc2C(=O)N(CC(=O)O)c2cc(Cc3c[nH]c4ccccc34)ccc21`, the Ki came to 12 µM in assay [1] and 41 µM at Endothelin-1 receptor.

Regarding `CCCN1c2ccccc2C(=O)N(CC(=O)O)c2cc(OCc3cccc4ccccc34)ccc21`, the Ki was found to be 60 µM in assay [1] and 7 µM at Endothelin-1 receptor.

As to `CC(C)C[C@@H]1NC(=O)[C@@H](C(C)C)NC(=O)[C@@H]2CCCN2C(=O)[C@@H](CC(=O)O)NC(=O)[C@@H](Cc2ccccc2)NC1=O`, the Ki at Endothelin-1 receptor was 2.4 µM.

For the molecule `CCCN1c2ccccc2C(=O)N(CC(=O)O)c2cc(NCc3cccc4ccccc34)ccc21`, the inhibition constant (Ki) worked out at 9 µM in assay [1] and 17 µM on Endothelin-1 receptor.

With `O=C(O)CN1C(=O)c2ccccc2Nc2ccc(OCc3cccc4ccccc34)cc21`, the Ki in assay [1] was found to be 8 µM; on Endothelin-1 receptor, 28 µM.

On to `CCCN1c2ccccc2C(=O)N(CC(=O)O)c2cc(NC(=O)Cc3c[nH]c4ccccc34)ccc21`, for which the inhibition constant (Ki) turned out to be 7 µM in assay [1] and 14 µM at Endothelin-1 receptor.

With `CC(C)C[C@@H]1NC(=O)[C@@H](C(C)C)NC(=O)[C@@H]2CCCN2C(=O)[C@@H](CC(=O)O)NC(=O)[C@@H](Cc2cccc3ccccc23)NC1=O`, on Endothelin-1 receptor, affinity was put at a Ki of 0.224 µM.

For the molecule `CCCN1c2ccccc2C(=O)N(CC(=O)O)c2cc(NC(=O)c3c[nH]c4ccccc34)ccc21`, the Ki in assay [1] turned out to be 11 µM; at Endothelin-1 receptor it was 80 µM.

The values above are taken from ChEMBL document CHEMBL1128621, “Design and synthesis of nonpeptidal endothelin receptor antagonists based on the structure of a cyclic pentapeptide” (Bioorg Med Chem Lett, 1995).
